This note sets out measurements from patent publication US6608082B1, “Treatment of erectile dysfunction using isoquinoline compound melanocortin receptor ligands” (Lion Bioscience AG, priority 1998, dated 2003).

Like-named read-outs stand apart in the source and are kept apart here.

Assay [1] deals with T1, MCR-1 (Homo sapiens, UniProt Q01726).
T1 construct: expressed in transfected cells; host or cells: HEK 293
The assay is described as follows: Melanocortin receptor binding assay, competition with 125I-HP 467, HEK 293 cells expressing hMCR-1. The settings on record: for IC50: read-out: MC-1 IC50. In a few lines: (§1)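 Intact-cell competition binding, 2.5 hr at 37 °C, in PBS/10% calf serum/1 mM CaCl2; hMCR-4 cells at 4×10^3 per tube, hMCR-1 cells at 2×10^4 per tube. Filtration on BSA/CaCl2-soaked GF/B, cold 50 mM Tris pH 7.4 washes, scintillation count.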

The target of assay [2] is T2, MCR-4 (Homo sapiens, UniProt P32245).
T2 construct: expressed in transfected cells; host or cells: HEK 293
T2 sequence (P32245 whole entry): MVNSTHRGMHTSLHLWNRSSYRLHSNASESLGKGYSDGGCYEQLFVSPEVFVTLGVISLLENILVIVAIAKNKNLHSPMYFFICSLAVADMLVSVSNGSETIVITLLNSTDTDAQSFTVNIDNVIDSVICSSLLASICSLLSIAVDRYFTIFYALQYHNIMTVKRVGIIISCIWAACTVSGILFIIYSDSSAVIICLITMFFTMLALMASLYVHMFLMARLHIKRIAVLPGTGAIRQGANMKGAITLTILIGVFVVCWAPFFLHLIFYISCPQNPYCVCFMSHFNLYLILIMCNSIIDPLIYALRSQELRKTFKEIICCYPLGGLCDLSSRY
The assay is described as follows: Melanocortin receptor binding assay, competition with 125I-HP 467, HEK 293 cells expressing hMCR-4. The settings on record: for IC50: read-out: MC-4 IC50. In a few lines:
as §1

Where [3] appears, read: TRG 2406 and TRG 2407 libraries, inhibition of binding of 125I-HP 467.
The mark [4] stands for this setting: TRG 2414 library, inhibition of binding of 125I-HP 467, HEK 293 cells expressing MCR-1.
The mark [5] stands for this setting: TRG 2414 library, inhibition of binding of 125I-HP 467, HEK 293 cells expressing MCR-4.
Setting [6] is: inhibition of binding of 125I-HP 467, HEK 293 cells expressing MCR-1.
Where [7] appears, read: inhibition of binding of 125I-HP 467, HEK 293 cells expressing MCR-4.
Where [8] appears, read: inhibition of binding of 125I-HP 467, HEK 293 cells expressing MCR-1, TRG 2414 library.
The mark [9] stands for this setting: inhibition of binding of 125I-HP 467, HEK 293 cells expressing MCR-4, TRG 2414 library.
Setting [10] is: competition with 125I-HP 467, HEK 293 cells expressing MCR-1.
Where [11] appears, read: competition with 125I-HP 467, HEK 293 cells expressing MCR-4.
Setting [12] is: TRG 2408 and TRG 2409 libraries, inhibition of 125I-HP 467 binding.

T1 sequence (Q01726 whole entry): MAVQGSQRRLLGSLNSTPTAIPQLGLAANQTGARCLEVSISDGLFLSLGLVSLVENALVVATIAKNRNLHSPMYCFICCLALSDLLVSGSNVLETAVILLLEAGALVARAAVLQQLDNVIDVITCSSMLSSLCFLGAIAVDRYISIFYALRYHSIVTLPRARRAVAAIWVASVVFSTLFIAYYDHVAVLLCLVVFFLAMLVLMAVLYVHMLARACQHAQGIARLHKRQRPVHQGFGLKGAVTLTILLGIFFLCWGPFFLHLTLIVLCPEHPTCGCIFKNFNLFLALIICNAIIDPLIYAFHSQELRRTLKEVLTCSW

Regarding `CNC(CN)CCCCN1Cc2ccccc2C(CNCc2cccc(OC)c2)C1c1ccc(Cl)cc1Cl` (centres unmarked) [TRG 2407-16], the IC50 (commonly the concentration that gives 50% inhibition) in assay [1] (setting [3]) came out at 5.83 µM; in assay [2] (setting [3]), 1.81 µM.

With `NCC(N)CCCCN1Cc2ccccc2C(CNCc2ccccc2C(F)(F)F)C1c1ccccc1Br` (centres unmarked) [Cmpd 201], the “MC-1 IC50” value in assay [1] (setting [4]) was “no fit”. The “MC-4 IC50” value in assay [2] (setting [5]) is on record as “no fit”.

Turning to `CCOc1ccc(C2C(CNCCc3ccccc3)c3ccccc3CN2CCCCC(CN)NC)cc1` (centres unmarked) [TRG 2412-4], the IC50 worked out at 0.31 µM in assay [1] (setting [6]) and 0.32 µM in assay [2] (setting [7]).

As to `CNC(CN)CCCCN1Cc2ccccc2C(CNc2ccccc2OC)C1c1ccc(Cl)cc1Cl` (centres unmarked) [TRG 2407-4], the IC50 was determined as 3.65 µM in assay [1] (setting [3]) and 4.12 µM in assay [2] (setting [3]).

With `COc1cccc(CNCC2c3ccccc3CN(CCCCC(CN)NCC(C)c3ccc(CC(C)C)cc3)C2c2ccc(Cl)cc2Cl)c1` (centres unmarked) [TRG 2414-20], the concentration for half-maximal inhibition (IC50) in assay [1] (setting [8]) stood at 27.4 µM; in assay [2] (setting [9]), 38.1 µM.

For `CCOc1ccccc1CNCC1c2ccccc2CN(CCCCC(CN)NCC(C)c2ccc(CC(C)C)cc2)C1c1cccc(Oc2ccccc2)c1` (centres unmarked) [TRG 2414-88], in assay [1] (setting [8]), the IC50 was 36.5 µM. Besides, in assay [2] (setting [9]), the “MC-4 IC50” value is recorded as “no fit”.

In the case of `CCCCNc1ccc(C2C(CN)c3ccccc3CN2CCCCC(CN)NCCc2ccccc2)cc1` (centres unmarked) [TRG 2411-104], the half-inhibitory concentration (IC50) in assay [1] (setting [10]) came out at 0.16 µM; in assay [2] (setting [11]), 0.59 µM.

With `CNC(CN)CCCCN1Cc2ccccc2C(CN(C)Cc2ccccc2)C1c1ccc(Cl)cc1Cl` (centres unmarked) [TRG 2407-11], the half-maximal inhibitory concentration (IC50) in assay [1] (setting [3]) came to 5.31 µM; in assay [2] (setting [3]) it was 6.17 µM.

Regarding `CCNc1ccc(C2C(CNc3cccc(O)c3)c3ccccc3CN2CCCCC(CN)NC)cc1` (mixture of isomers) [TRG 2407-47], the 50% inhibitory concentration (IC50) in assay [1] (setting [3]) came to 0.84 µM. Further, the “MC-4 IC50” value in assay [2] (setting [3]) is “no fit”.

Consider `COc1cccc(CNCC2c3ccccc3CN(CCCCC(CN)NCCc3ccccc3)C2c2cccc(Oc3ccccc3)c2)c1` (mixture of isomers) [TRG 2414-98], for which the IC50 in assay [1] (setting [8]) was 13.2 µM; in assay [2] (setting [9]), 9.61 µM.

Regarding `COc1ccc(CCNCC2c3ccccc3CN(CCCCC(N)CN)C2c2cc(C(F)(F)F)cc(C(F)(F)F)c2)cc1` (centres unmarked) [TRG 2414-65], the half-maximal inhibitory concentration (IC50) in assay [1] (setting [8]) was 3.3 µM; in assay [2] (setting [9]) it was 0.26 µM.

Turning to `NCC(CCCCN1Cc2ccccc2C(CNC2CCCCCC2)C1c1cccc(Oc2ccccc2)c1)NCCc1ccccc1` (centres unmarked) [TRG 2414-114], the IC50 is 8.96 µM in assay [1] (setting [8]) and 4.83 µM in assay [2] (setting [9]).

For the compound `CCOc1ccccc1CNCC1c2ccccc2CN(CCCCC(CN)NC)C1c1ccc(Cl)cc1Cl` (centres unmarked) [TRG 2407-15], the results for the concentration for half-maximal inhibition (IC50) in assay [1] (setting [3]) and in assay [2] (setting [3]) were 1.2 µM and 0.78 µM, respectively.

Turning to `NCC(CCCCN1Cc2ccccc2C(CNCc2ccccc2)C1c1ccc(Cl)cc1Cl)NCCc1ccccc1` (centres unmarked) [TRG 2414-30], the 50% inhibitory concentration (IC50) in assay [1] (setting [8]) worked out at 5.39 µM; in assay [2] (setting [9]), 6.21 µM.

With `NCC(CCCCN1Cc2ccccc2C(CNC2CCCCCC2)C1c1cccc(Oc2ccccc2)c1)NCc1ccccc1` (centres unmarked) [TRG 2414-115], the IC50 in assay [1] (setting [8]) is 3.71 µM; in assay [2] (setting [9]) it was 5.6 µM.

`CNC(CN)CCCCN1Cc2ccccc2C(CNC2CCCCCC2)C1c1ccc(Cl)cc1Cl` (centres unmarked) [TRG 2407-29]: the half-inhibitory concentration (IC50) is 0.64 µM in assay [1] (setting [3]) and 0.77 µM in assay [2] (setting [3]).

Consider `CCNc1ccc(C2C(CNCCc3ccccc3)c3ccccc3CN2CCCC[C@@H](CN)NCCCCOc2ccccc2)cc1` (some centres unmarked) [2424#11], for which the 50% inhibitory concentration (IC50) in assay [1] (setting [6]) was determined as 0.21 µM; in assay [2] (setting [7]), 3.52 µM.

Regarding `CCc1ccc(C2C(CO)c3ccccc3CN2CCCC(CN)NCCC2CCCCC2)cc1` (centres unmarked) [TRG 2415-7], the results for the IC50 in assay [1] (setting [6]) and in assay [2] (setting [7]) were 4.8 µM and 2.13 µM, respectively.

With `Cc1ccc(CNC(CN)CCCCN2Cc3ccccc3C(CNCCc3ccc(O)cc3)C2c2cc(C(F)(F)F)cc(C(F)(F)F)c2)cc1` (centres unmarked) [TRG 2421-7], the results for the IC50 in assay [1] (setting [6]) and in assay [2] (setting [7]) were 3.19 µM and 4.53 µM, respectively.

For the compound `COc1ccc(CCNCC2c3ccccc3CN(CCCCC(CN)NCC(C)c3ccc(CC(C)C)cc3)C2c2ccc(Oc3ccccc3)cc2)cc1` (centres unmarked) [TRG 2414-148], the “MC-1 IC50” value in assay [1] (setting [8]) is “no fit”. The “MC-4 IC50” value in assay [2] (setting [9]) is given as “no fit”.

With `CCCOc1ccc(C2C(CNCc3ccccc3)c3ccccc3CN2CCCCC(CN)NCc2ccccc2)cc1` (centres unmarked) [Cmpd 191], the half-inhibitory concentration (IC50) in assay [1] (setting [4]) came out at 1.95 µM; in assay [2] (setting [5]), 5.53 µM.

As to `NCC(N)CCCCN1Cc2ccccc2C(CNCCc2cccc(Cl)c2)C1c1ccccc1Br` (centres unmarked) [Cmpd 213], the IC50 is 6.48 µM in assay [1] (setting [4]) and 2.06 µM in assay [2] (setting [5]).

With `COc1ccccc1CCNCC1c2ccccc2CN(CCCCC(CN)NCCc2ccccc2)C1c1cccc(Oc2ccccc2)c1` (centres unmarked) [TRG 2414-90], the IC50 in assay [1] (setting [8]) is 3.52 µM; in assay [2] (setting [9]), 4.06 µM.

As for `NCC(CCCCN1Cc2ccccc2C(CNCc2ccccc2C(F)(F)F)C1c1cc(C(F)(F)F)cc(C(F)(F)F)c1)NCCc1ccccc1` (centres unmarked) [TRG 2414-42], the IC50 in assay [1] (setting [8]) was 32.8 µM; in assay [2] (setting [9]), 30.2 µM.

On to `CCNc1ccc(C2C(CNCCc3ccccc3)c3ccccc3CN2CCCC(CN)NCc2ccccc2CNCCc2ccccc2)cc1` (centres unmarked) [TRG 2420-16], for which the IC50 in assay [1] (setting [6]) was 0.164 µM; in assay [2] (setting [7]), 1.2 µM.

Consider `CCCOc1ccc(C2C(CNCCc3ccc(OC)cc3)c3ccccc3CN2CCCCC(CN)NCC(C)c2ccc(CC(C)C)cc2)cc1` (centres unmarked) [Cmpd 188], for which the IC50 in assay [1] (setting [4]) was 7.9 µM; in assay [2] (setting [5]) it was 20 µM.

For `COc1ccc(CCNCC2c3ccccc3CN(CCCCC(CN)NCc3ccc(Br)cc3)C2c2cc(C(F)(F)F)cc(C(F)(F)F)c2)cc1OC` (centres unmarked) [TRG 2421-18], the IC50 was 4.79 µM in assay [1] (setting [6]) and 1.35 µM in assay [2] (setting [7]).

Take `CCNC(CN)CCCN1Cc2ccccc2C(CNCCc2ccccc2)C1c1ccc(-c2ccccc2)cc1` (centres unmarked) [TRG 2411-115]: the values for the IC50 in assay [1] (setting [10]) and in assay [2] (setting [11]) were 0.82 µM and 1.43 µM, respectively.

With `COc1ccc(CNC(CN)CCCCN2Cc3ccccc3C(CNCCc3cccc(OC)c3)C2c2cccc(C(F)(F)F)c2)cc1` (centres unmarked) [TRG 2421-48], the IC50 in assay [1] (setting [6]) is 1.74 µM; in assay [2] (setting [7]), 0.95 µM.

On to `CCNc1ccc(C2C(CNC3CCCCC3)c3ccccc3CN2CCC(CN)NCCN)cc1` (centres unmarked) [TRG 2408-93], for which the 50% inhibitory concentration (IC50) came to 4.01 µM in assay [1] (setting [12]) and 16.3 µM in assay [2] (setting [12]).

Regarding `COc1cccc(CNCC2c3ccccc3CN(CCCCC(CN)NCC(C)c3ccc(CC(C)C)cc3)C2c2ccc(Oc3ccccc3)cc2)c1` (centres unmarked) [TRG 2414-140], the IC50 in assay [1] (setting [8]) amounted to 37 µM. The “MC-4 IC50” value in assay [2] (setting [9]) is recorded as “no fit”.

`COc1ccc(CNCC2c3ccccc3CN(CCCCC(CN)NCCc3ccccc3)C2c2cccc(Oc3ccccc3)c2)cc1` (centres unmarked) [TRG 2414-102]: the figures for the IC50 in assay [1] (setting [8]) and in assay [2] (setting [9]) were 12.2 µM and 6.91 µM, respectively.

Regarding `CCCCCc1ccc(C2C(CN)c3ccccc3CN2CCCC(CN)NCCC2CCCCC2)cc1` (centres unmarked) [TRG 2415-14], the IC50 amounted to 1.69 µM in assay [1] (setting [6]) and 9.39 µM in assay [2] (setting [7]).

With `CNCCNC(CN)CCCCN1Cc2ccccc2C(CNC2CCCCC2)C1c1ccc(Cl)cc1Cl` (centres unmarked) [TRG 2408-44], the IC50 in assay [1] (setting [12]) amounted to 1.27 µM; in assay [2] (setting [12]), 5.06 µM.

Consider `CCCCNc1ccc(C2C(CNCCc3ccccc3)c3ccccc3CN2CCCC(CN)NCc2ccccc2)cc1` (centres unmarked) [TRG 2411-196], for which the values for the IC50 in assay [1] (setting [6]) and in assay [2] (setting [7]) were 0.12 µM and 1.05 µM, respectively.

For the compound `COc1ccc(CNCC2c3ccccc3CN(CCCCC(CN)NCC(C)c3ccc(CC(C)C)cc3)C2c2ccccc2Br)cc1` (centres unmarked) [Cmpd 224], the IC50 in assay [1] (setting [4]) was 31.5 µM; in assay [2] (setting [5]), 22.7 µM.

Consider `COc1ccc(CCNCC2c3ccccc3CN(CCCCC(CN)NCC(C)c3ccc(CC(C)C)cc3)C2c2ccc(Cl)cc2Cl)cc1` (centres unmarked) [TRG 2414-28], for which the IC50 in assay [1] (setting [8]) is 13.9 µM; in assay [2] (setting [9]), 7.42 µM.
